Measured values from patent US20230172848A1, “ORAL FILM FOR SAFE ADMINISTRATION OF API” (LABTEC GMBH, priority 2020, published 2023).
Where two headings read alike, the source gives them in different places.

Legend:
[1] = in vivo; cited from earlier work
[2] = acceptor medium of buffer pH 7.0
Protocol: The dosage unit prepared from formulation F6 were tested for ex-vivo permeation on porcine buccal mucosa in vertical Franz-cells.

[3] = cited from earlier work; for required dose for induction of anesthesia: 1% solution i.v.
[4] = cited from earlier work

CC(C)c1cccc(C(C)C)c1O [propofol, 2,6-diisopropylphenol]
oral bioavailability [1]: very low | concentration of saturated solution [2]: about 167.8 μg/ml | required dose for induction of anesthesia ([3]; adult patients aged less than 55 years): 1.5-2.5 mg/kg body weight | required dose for induction of anesthesia ([3]; children over 8 years): about 2.5 mg/kg body weight | rate of administration that maintains the anesthetic effect ([3]; adults under the age of 55): 4-12 mg/kg body weight/h | rate of administration that maintains the anesthesia ([3]; children over the age of 1 month): 9-15 mg/kg body weight/h | blood level required for the sedative effect ([4]; Dhir et al., 2016): 1.5 to 2.0 µg/mL | average blood concentration required for anesthetic effect ([4]; major surgeries): 4.05 ± 1.01 µg/mL | blood concentration sufficient for anesthetic effect ([4]; minor surgical procedures): 2.97 ± 1.07 µg/mL
